PMC8041433 (Environmental Health Perspectives, 2021)
Values joined by “and” are separate entries in the source; they are usually repeats but may differ in a detail not shown here. Equal values may be shown once. Where a name gives a salt, the structure may show the parent alone. Read-outs that look alike come from different tables or passages of the source.

Legend:
recombinant human AChE [1] = molecular target: T1, recombinant human AChE (Homo sapiens, UniProt P22303); assay: biochemical
AChE in SH-SY5Y cells = AChE in SH-SY5Y cells (Homo sapiens, UniProt P22303); assay: cell-based
AChE in SH-SY5Y cells, sequence (P22303 32-614): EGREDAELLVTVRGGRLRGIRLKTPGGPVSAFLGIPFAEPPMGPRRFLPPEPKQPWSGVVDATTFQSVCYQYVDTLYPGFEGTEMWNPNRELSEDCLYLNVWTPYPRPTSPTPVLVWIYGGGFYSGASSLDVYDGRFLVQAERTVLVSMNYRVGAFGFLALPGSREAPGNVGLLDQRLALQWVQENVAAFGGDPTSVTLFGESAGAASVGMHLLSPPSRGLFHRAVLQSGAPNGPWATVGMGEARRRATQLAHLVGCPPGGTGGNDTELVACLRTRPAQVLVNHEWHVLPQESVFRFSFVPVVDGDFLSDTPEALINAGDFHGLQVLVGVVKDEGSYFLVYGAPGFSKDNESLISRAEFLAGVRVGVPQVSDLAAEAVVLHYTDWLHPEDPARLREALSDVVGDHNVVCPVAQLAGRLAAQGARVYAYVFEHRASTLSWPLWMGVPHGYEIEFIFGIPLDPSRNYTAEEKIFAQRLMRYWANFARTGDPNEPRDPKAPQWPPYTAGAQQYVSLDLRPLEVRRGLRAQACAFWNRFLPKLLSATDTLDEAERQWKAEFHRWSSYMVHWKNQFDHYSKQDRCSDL

recombinant human AChE [2] = molecular target: T1, recombinant human AChE

T1 sequence (P22303 32-614): as above

Row | Compound | CC-v2 (curve classes) (recombinant human AChE [1]) | Efficacy (recombinant human AChE [1]) | IC50 (recombinant human AChE [1]; IC50 (uM)) | CC-v2 (curve classes) (AChE in SH-SY5Y cells) | IC50 (AChE in SH-SY5Y cells; IC50 (uM)) | CC-v2 (curve classes) (recombinant human AChE [2]) | Efficacy (recombinant human AChE [2]) | IC50 (AChE in SH-SY5Y cells; read-out: IC50) | IC50 (recombinant human AChE [1]; read-out: IC50) | AChE inhibition (result in words) (recombinant human AChE [1])
1 | CCCCCCCCCCCCCC[n+]1ccccc1 [Tetradecylpyridinium bromide] | -2.1 | -102.568 | 56.4 µM | -1.1 and -2.1 | 31.7 µM and 39.9 µM | 4 | 0 |  |  | 
2 | C=CCN1CC[C@]23CCCC[C@H]2[C@H]1Cc1ccc(O)cc13 [Levallorphan] | 4 | -27.829 |  | -2.1 |  | 4 | 0 |  |  | 
3 | Cl.O=C(c1ccc(F)cc1)C1CCN(CCn2c(=S)[nH]c3ccccc3c2=O)CC1 [Altanserin hydrochloride] | 4 | 0 |  | -2.1 |  | 4 | 0 | 13.8 µM |  | 
4 | O=S1OC[C@@H]2[C@H](CO1)[C@]1(Cl)C(Cl)=C(Cl)[C@@]2(Cl)C1(Cl)Cl (some centres unmarked) [Endosulfan I] | -1.1 | -101.477 |  | -1.1 |  | -3 | -117.846 |  |  | 
5 | CCCN[C@H]1CCc2nc(N)sc2C1 [Pramipexole dihydrochloride monohydrate] | 4 | -20.242 |  | -2.1 |  | 4 | -16.414 |  |  | 
6 | CC(C)=CCN1CC[C@@]2(C)c3cc(O)ccc3C[C@@H]1[C@@H]2C.O=C(O)CCC(=O)O [(-)-Pentazocine succinate, reference compound] | -2.4 |  |  | -2.1 |  | 4 | 0 | 31.2 µM and 35.1 µM and 34.8 µM and 24.7 µM and 31 µM |  | 
7 | C[n+]1cc2c3c(ccc2c2ccc4cc5c(cc4c21)OCO5)OCO3 [Sanguinarine] | -2.2 | -68.744 | 16.9 µM | -2.1 | 15.1 µM and 12 µM and 10.7 µM | 4 | -7.894 |  |  | 
8 | CC[n+]1c(-c2ccccc2)c2cc(N)ccc2c2ccc(N)cc21 [Ethidium bromide] | -2.2 |  | 30.9 µM and 79.3 µM | -2.1 | 19.5 µM and 31.6 µM and 17.4 µM | 4 |  |  |  | 
9 | COc1cc(N)c(Cl)cc1C(=O)NC1CN2CCC1CC2.Cl (centres unmarked) [Zacopride hydrochloride] | 4 | 0 |  | -2.2 |  | 4 | 0 |  |  | 
10 | CN1CCCC(n2nc(Cc3ccc(Cl)cc3)c3ccccc3c2=O)CC1 (centres unmarked) [Azelastine hydrochloride] | -2.2 | -73.562 | 27.5 µM | -2.1 | 17.4 µM and 15.5 µM | 4 | 0 |  |  | 
11 | COP(=O)(OC)O/C(C)=C/C(=O)N(C)C [Dicrotophos] | -2.2 | -67.448 | 63.7 µM | -2.1 | 40.2 µM and 31.9 µM | 4 | 0 |  |  | 
12 | COP(=S)(OC)Oc1nc(Cl)c(Cl)cc1Cl [Chlorpyrifos-methyl] | 4 | 0 |  | 4 and -2.2 | 63.3 µM | 4 | 0 |  |  | 
13 | COc1ccc2c(c1OC)CN1CCc3cc4c(cc3[C@@H]1C2)OCO4 [Canadine] | -1.1 | -74.441 |  | -1.1 and -2.1 | 8.71 µM and 11 µM and 9.77 µM | -3 | -45.32 |  |  | 
14 | CC(C)Nc1nc(Cl)nc(NC(C)C)n1 [Propazine] | -2.2 and 4 |  | 71 µM | -2.1 and 4 | 31.7 µM and 25.2 µM and 28.3 µM | 4 | 0 |  |  | 
15 | Cc1ccc2c(c1)OCC(=O)CO2 [7-Methyl-2H-1,5-benzodioxepin-3(4H)-one] | -2.2 | -48.628 |  | -2.1 |  | 4 | 0 | 35.6 µM and 31.7 µM | 79.6 µM | 
16 | CCOP(=S)(Oc1ccc([N+](=O)[O-])cc1)c1ccccc1 (centres unmarked) [EPN] | 4 | 0 |  | 4 |  | -1.1 | -95.341 |  |  | did not show effects
17 | Oc1ccc(C(O)CNCCCCCCNCC(O)c2ccc(O)c(O)c2)cc1O (centres unmarked) [Hexoprenaline sulfate] | 4 | 0 |  |  | 38.9 µM and 30.9 µM | 4 | 0 |  |  | 
18 | CN(C)c1ccc(C(=C2C=CC(=[N+](C)C)C=C2)c2ccc(N(C)C)cc2)cc1.[Cl-] [Methylrosaniline chloride] | -2.1 | -113.882 |  |  |  | 4 | 0 | 38.9 µM | 30.9 µM | 
19 | Cc1nc2n(c(=O)c1CCN1CCC(c3noc4cc(F)ccc34)CC1)CCCC2 [Risperidone] | 4 | -13.373 |  | -1.1 and -2.1 |  | 4 | 0 |  |  | 
20 | CCCCOc1ccc(C(=O)CCN2CCCCC2)cc1 [Dyclonine hydrochloride] | -2.2 | -57.155 | 27.5 µM | -2.1 | 12.3 µM and 13.8 µM | 4 | 0 |  |  | 
21 | N=C(N)NC(=O)c1nc(Cl)c(N)nc1N [Amiloride hydrochloride] | 4 | -15.372 |  | -2.1 | 32.9 µM | 4 | 0 |  |  | 
22 | COCCCOc1ccnc(C[S+]([O-])c2nc3ccccc3[nH]2)c1C (centres unmarked) [Rabeprazole sodium] | 4 | -15.052 |  | -2.1 and -2.2 | 63.1 µM and 70.7 µM | 1.1 | 92.667 |  |  | 
23 | COc1cc(C(=O)NCc2ccc(OCCN(C)C)cc2)cc(OC)c1OC [Trimethobenzamide hydrochloride] | -1.1 | -75.922 |  | -2.1 and -1.1 |  | 4 | -14.276 |  |  | 
24 | CN(C)C(=S)SSC(=S)N(C)C [Thiram] | 4 |  |  |  | 38.9 µM and 88.1 µM and 78.5 µM and 89.4 µM and 71 µM | 4 |  |  |  | 
25 | COP(=O)(OC)O/C(=C\Cl)c1cc(Cl)c(Cl)cc1Cl [Z-Tetrachlorvinphos] | -2.4 | -30.752 | 71 µM | -2.2 | 63.3 µM and 79.6 µM | 4 | 0 | 44.8 µM |  | 
26 | CCOP(=O)(OCC)Oc1ccc([N+](=O)[O-])cc1 [Paraoxon] | -1.1 |  |  | -1.1 |  | -1.1 |  |  |  | 
27 | CCOC(=O)COc1ccc2c(C)c(CCN(CC)CC)c(=O)oc2c1Cl.Cl [Cloricromen hydrochloride] | -2.1 | -70.529 |  | -2.1 |  | 4 | -27.609 | 13.8 µM and 15.5 µM | 15.5 µM | 
28 | Cc1cc(N)c2cc(NC(=O)Nc3ccc4nc(C)cc(N)c4c3)ccc2n1.Cl.Cl [Aminoquinuride dihydrochloride] | 4 | -15.256 |  |  |  | 4 | 0 | 38.9 µM and 30.9 µM |  | 
